Experimental data from the NIST ThermoML archive (doi:10.1021/je100170v).

What was measured:
[1] = Liquid; for viscosity: 101.3 kPa
[2] = xn = mol fraction of the nth substance listed; conditions: 101 kPa, Liquid; for speed of sound: Sing-around technique in a fixed-path interferometer

CC(=O)N(C)C [N,N-dimethylethanamide]
[1], 101 kPa
Conditions | mass density [kg/m3]
298.15 K | 937.2
308.15 K | 925.8
318.15 K | 917.1

Conditions | speed of sound [m/s]
[1], 298.15 K, 101 kPa, Sing-around technique in a fixed-path interferometer | 1458.2

[1]
Conditions | viscosity [mPa·s]
298.15 K | 0.937
308.15 K | 0.841
318.15 K | 0.763

CC(=O)N(C)C [N,N-dimethylethanamide] + CCCCCCCCO
[2]
Conditions | mass density, 298.15 K [kg/m3] | mass density, 308.15 K [kg/m3] | mass density, 318.15 K [kg/m3] | speed of sound, 298.15 K [m/s] | viscosity, 298.15 K [mPa·s] | viscosity, 308.15 K [mPa·s] | viscosity, 318.15 K [mPa·s]
x2 = 0 | 937.2 | 925.8 | 917.1 | 1458.2 | 0.937 | 0.841 | 0.763
x2 = 0.0692 | 923.5 | 912.7 | 904.4 | 1433.5 | 1.072 | 0.942 | 0.851
x2 = 0.1433 | 910.4 | 900.2 | 892.2 | 1412.4 | 1.246 | 1.063 | 0.947
x2 = 0.2228 | 897.7 | 888.1 | 880.4 | 1390.3 | 1.418 | 1.194 | 1.046
x2 = 0.3084 | 885.5 | 876.3 | 868.9 | 1372.5 | 1.702 | 1.376 | 1.185
x2 = 0.4008 | 873.7 | 864.8 | 857.8 | 1360 | 2.023 | 1.614 | 1.361
x2 = 0.5009 | 862.3 | 853.9 | 847 | 1353.4 | 2.399 | 1.893 | 1.585
x2 = 0.6095 | 851.4 | 843.4 | 836.7 | 1348.5 | 3.111 | 2.406 | 1.935
x2 = 0.728 | 840.9 | 833.1 | 826.6 | 1346.4 | 4.009 | 2.988 | 2.35
x2 = 0.8576 | 830.9 | 823.4 | 816.9 | 1348 | 5.318 | 3.849 | 2.965
